Laboratory results: ChEMBL document CHEMBL5523697, “Colony Stimulating Factor-1 Receptor: An emerging target for neuroinflammation PET imaging and AD therapy” (Bioorg Med Chem, 2024)

What was measured:
[1] = target: T1, Macrophage colony-stimulating factor 1 receptor (Homo sapiens, UniProt P07333)
physchem [2] = conditions: buffer, pH 7.4
[3] = target: T1, Macrophage colony-stimulating factor 1 receptor; remark: listed apart in the source
in vivo [4] = conditions: mouse, brain, iv, 5 mg/kg
physchem [5] = conditions: octanol/water
in vivo [6] = conditions: mouse, brain, iv, 5 mg/kg; remark: listed apart in the source
in vivo [7] = conditions: mouse, brain, iv, 5 mg/kg; remark: listed apart in the source
in vivo [8] = conditions: mouse, brain
[9] = target: T1, Macrophage colony-stimulating factor 1 receptor; remark: listed apart in the source

T1 sequence (P07333 whole entry): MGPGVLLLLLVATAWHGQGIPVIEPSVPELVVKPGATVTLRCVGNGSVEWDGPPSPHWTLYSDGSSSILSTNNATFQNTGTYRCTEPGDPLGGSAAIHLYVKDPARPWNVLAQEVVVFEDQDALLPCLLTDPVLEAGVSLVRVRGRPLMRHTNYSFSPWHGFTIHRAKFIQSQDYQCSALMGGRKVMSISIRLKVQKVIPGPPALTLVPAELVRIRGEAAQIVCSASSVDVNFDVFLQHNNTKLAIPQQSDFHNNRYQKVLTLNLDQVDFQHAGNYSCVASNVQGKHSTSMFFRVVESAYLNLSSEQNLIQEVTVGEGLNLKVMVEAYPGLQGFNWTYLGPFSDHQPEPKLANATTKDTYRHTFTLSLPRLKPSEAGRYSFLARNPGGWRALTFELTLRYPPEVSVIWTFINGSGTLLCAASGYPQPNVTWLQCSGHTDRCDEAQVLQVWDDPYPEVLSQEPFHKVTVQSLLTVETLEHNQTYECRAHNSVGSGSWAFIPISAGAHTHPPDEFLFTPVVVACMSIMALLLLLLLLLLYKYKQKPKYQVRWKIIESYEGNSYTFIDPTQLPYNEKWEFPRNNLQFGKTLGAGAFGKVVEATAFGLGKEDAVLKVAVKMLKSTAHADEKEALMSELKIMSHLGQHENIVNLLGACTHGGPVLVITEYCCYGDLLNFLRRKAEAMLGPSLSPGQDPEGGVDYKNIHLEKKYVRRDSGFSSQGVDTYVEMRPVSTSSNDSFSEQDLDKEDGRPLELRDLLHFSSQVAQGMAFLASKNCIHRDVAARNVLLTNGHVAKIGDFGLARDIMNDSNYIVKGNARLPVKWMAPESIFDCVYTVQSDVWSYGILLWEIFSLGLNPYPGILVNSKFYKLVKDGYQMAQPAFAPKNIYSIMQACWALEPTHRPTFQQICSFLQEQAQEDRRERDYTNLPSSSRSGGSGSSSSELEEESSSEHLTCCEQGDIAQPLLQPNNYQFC

SMILES: CCOc1cc2ncc(C(N)=O)c(Nc3ccc(F)cc3F)c2cc1N1CCN([11CH3])CC1
- IC50 [1]: 6 nM

SMILES: CNC(=O)c1cc(Oc2ccc3nc(N([11CH3])[C@@H]4CCCC[C@H]4O)sc3c2)ccn1
- logD (physchem [2]): 3.38
- Kd [3]: 26 nM

SMILES: CNC(=O)c1cc(Oc2ccc3nc(N(C)[C@@H]4CCCC[C@H]4O)sc3c2)ccn1
- logD (physchem [2]): 3.67
- Kd [3]: 15.7 nM

SMILES: [11CH3]NC(=O)c1cc(Oc2ccc3nc(N[C@@H]4CCCC[C@H]4O)sc3c2)ccn1
- tissue uptake at 1 h (in vivo [4]): 1.3 %ID/g
- logD (physchem [5]): 2.26
- tissue uptake at 0.25 h (in vivo [6]): 1.35 %ID/g
- tissue uptake at 5 min (in vivo [7]): 2 %ID/g
- tissue uptake at 1 h (in vivo [8]): 1.18 %ID/g

SMILES: CCOc1cc2ncc(C(N)=O)c(Nc3ccc(F)cc3F)c2cc1N1CCN(C)CC1
- Ki [9]: 8 nM
